In patent US20250276983A1, “COMPOUNDS AND METHODS FOR MODULATING HER2” (IAMBIC THERAPEUTICS, INC., priority 2022, published 2025) one finds IC50 data, which are given here for eight molecules.

Format in all cases: cell-based
Assay [1] deals with BaF3_HER2YVMA cells. Description: Cell growth inhibition assay, BaF3_HER2YVMA. The following applies: 72 h, BaF3_HER2YVMA cells, 3 days treatment, CellTiterGlo 2.0; read-out: HER2-YVMA IC50 (nM), cell growth inhibition.
The test system of assay [2] is BaF3_HER2WT cells. Description: Cell growth inhibition assay, BaF3_HER2WT. The following applies: 72 h, 3 days treatment, CellTiterGlo 2.0, read-out: HER2 WT IC50 (nM), cell growth inhibition.
Assay [3] relates to BaF3_EGFRWT cells. Nature of the assay: Cell growth inhibition assay, BaF3_EGFRWT. The note with it: 72 h, 80 ng/mL recombinant human EGF, 3 days treatment, CellTiterGlo 2.0, read-out: EGFR WT IC50 (nM), cell growth inhibition. For orientation: Cellular ATP, detected with luciferase, serves as a proxy for viable cell number.

As for `Cc1cc(Nc2ncnn3ccc(C4CCN(C(=O)C#CCN(C)C)CC4)c23)ccc1Oc1ccn2ncnc2c1` [Example 64, 1-(4-(4-((4-([1,2,4]triazolo[1,5-a]pyridin-7-yloxy)-3-methylphenyl)amino)pyrrolo[2,1-f][1,2,4]triazin-5-yl)piperidin-1-yl)-4-(dimethylamino)but-2-yn-1-one], the IC50 in assay [1] is < 200 nM; in assay [2], < 200 nM; in assay [3], 200 to 500 nM.

In the case of `Cc1cc(Nc2ncnn3ccc(C4CCN(C(=O)/C=C/C5CCCN5C)CC4)c23)ccc1Oc1ccn2ncnc2c1` (stereo not drawn) [Example 65, (E)-1-(4-(4-((4-([1,2,4]triazolo[1,5-a]pyridin-7-yloxy)-3-methylphenyl)amino)pyrrolo[2,1-f][1,2,4]triazin-5-yl)piperidin-1-yl)-3-(1-methylpyrrolidin-2-yl)prop-2-en-1-one], the 50% inhibitory concentration (IC50) in assay [1] was < 200 nM; in assay [2], < 200 nM; in assay [3], 1500 to 5000 nM.

For the molecule `Cc1cc(Nc2ncnn3ccc(C4CN(C(=O)/C=C/C5CCCN5C)C4)c23)ccc1Oc1ccn2ncnc2c1` (stereo not drawn) [Example 66, (E)-1-(3-(4-((4-([1,2,4]triazolo[1,5-a]pyridin-7-yloxy)-3-methylphenyl)amino)pyrrolo[2,1-f][1,2,4]triazin-5-yl)azetidin-1-yl)-3-(1-methylpyrrolidin-2-yl)prop-2-en-1-one], the figures for the IC50 in assay [1], in assay [2] and in assay [3] were < 200 nM, < 200 nM and 1500 to 5000 nM, respectively.

On to `C=C(CN(C)C)C(=O)N1CC(c2ccn3ncnc(Nc4ccc(Oc5ccc6c(c5)ncn6C)c(C)c4)c23)C1` [Example 67, 2-((dimethylamino)methyl)-1-(3-(4-((3-methyl-4-((1-methyl-1H-benzo[d]imidazol-5-yl)oxy)phenyl)amino)pyrrolo[2,1-f][1,2,4]triazin-5-yl)azetidin-1-yl)prop-2-en-1-one], for which the IC50 was < 200 nM in assay [1], < 200 nM in assay [2] and 500 to 1500 nM in assay [3].

As to `Cc1cc(Nc2ncnn3ccc(N4CCCC(N(C)C(=O)/C=C/CN(C)C)C4)c23)ccc1Oc1ccn2ncnc2c1` (stereo not drawn) [Example 68, (E)-N-(1-(4-((4-([1,2,4]triazolo[1,5-a]pyridin-7-yloxy)-3-methylphenyl)amino)pyrrolo[2,1-f][1,2,4]triazin-5-yl)piperidin-3-yl)-4-(dimethylamino)-N-methylbut-2-enamide], the results for the IC50 in assay [1], in assay [2] and in assay [3] were < 200 nM, < 200 nM and 1500 to 5000 nM, respectively.

For the molecule `C=CC(=O)N(C)C1CCCN(c2ccn3ncnc(Nc4ccc(Oc5ccn6ncnc6c5)c(C)c4)c23)C1` (stereo not drawn) [Example 69, N-(1-(4-((4-([1,2,4]triazolo[1,5-a]pyridin-7-yloxy)-3-methylphenyl)amino)pyrrolo[2,1-f][1,2,4]triazin-5-yl)piperidin-3-yl)-N-methylacrylamide], the figures for the IC50 in assay [1], in assay [2] and in assay [3] were 200 to 500 nM, < 200 nM and 1500 to 5000 nM, respectively.

Consider `Cc1cc(Nc2ncnn3ccc(N4CCC(N(C)C(=O)/C=C/CN(C)C)C4)c23)ccc1Oc1ccn2ncnc2c1` (stereo not drawn) [Example 70, (E)-N-(1-(4-((4-([1,2,4]triazolo[1,5-a]pyridin-7-yloxy)-3-methylphenyl)amino)pyrrolo[2,1-f][1,2,4]triazin-5-yl)pyrrolidin-3-yl)-4-(dimethylamino)-N-methylbut-2-enamide], for which the IC50 in assay [1] is < 200 nM; in assay [2] it was < 200 nM; in assay [3] it was 1500 to 5000 nM.

For the molecule `Cc1cc(Nc2ncnn3ccc(N4CC(NC(=O)/C=C/CN(C)C)C4)c23)ccc1Oc1ccn2ncnc2c1` [Example 71, (E)-N-(1-(4-((4-([1,2,4]triazolo[1,5-a]pyridin-7-yloxy)-3-methylphenyl)amino)pyrrolo[2,1-f][1,2,4]triazin-5-yl)azetidin-3-yl)-4-(dimethylamino)but-2-enamide], the values for the IC50 in assay [1], in assay [2] and in assay [3] were 200 to 500 nM, < 200 nM and 1500 to 5000 nM, respectively.

For orientation: IC50 means the point on the concentration scale where inhibition reaches its midpoint.
